The compounds below were run against T1, USP28 (Homo sapiens (Human), UniProt Q96RU2) (assay: Ubiquitin-Rhodamine110 assay). Settings: USP28 at 1 nM; 30 minutes pre-incubation at room temperature; Ubiquitin-Rho110 substrate 125 nM.
Type: biochemical
Procedure: USP28 (at 1 nM) was pre-incubated with different concentrations of inhibitors or DMSO as a control in 50 mM Tris pH 8, 50 mM NaCl, 0.002% Tween-20, 5 mM DTT. Compounds and protein were incubated for 30 minutes at room temperature prior to the addition of Ubiquitin-Rho110 (Boston Biochem) substrate for a final concentration of 125 nM. The initial rate of the reaction was measured by collecting fluorescence data at one-minute interval over 30-minute period using a Clariostar® fluorescence plate reader at excitation and emission wavelength of 485 nm and 535 nm, respectively. The calculated initial rate values were plotted against inhibitor concentrations to determine IC50s. All the experimental data were plotted using GraphPad Prism®.

T1 sequence (Q96RU2 whole entry): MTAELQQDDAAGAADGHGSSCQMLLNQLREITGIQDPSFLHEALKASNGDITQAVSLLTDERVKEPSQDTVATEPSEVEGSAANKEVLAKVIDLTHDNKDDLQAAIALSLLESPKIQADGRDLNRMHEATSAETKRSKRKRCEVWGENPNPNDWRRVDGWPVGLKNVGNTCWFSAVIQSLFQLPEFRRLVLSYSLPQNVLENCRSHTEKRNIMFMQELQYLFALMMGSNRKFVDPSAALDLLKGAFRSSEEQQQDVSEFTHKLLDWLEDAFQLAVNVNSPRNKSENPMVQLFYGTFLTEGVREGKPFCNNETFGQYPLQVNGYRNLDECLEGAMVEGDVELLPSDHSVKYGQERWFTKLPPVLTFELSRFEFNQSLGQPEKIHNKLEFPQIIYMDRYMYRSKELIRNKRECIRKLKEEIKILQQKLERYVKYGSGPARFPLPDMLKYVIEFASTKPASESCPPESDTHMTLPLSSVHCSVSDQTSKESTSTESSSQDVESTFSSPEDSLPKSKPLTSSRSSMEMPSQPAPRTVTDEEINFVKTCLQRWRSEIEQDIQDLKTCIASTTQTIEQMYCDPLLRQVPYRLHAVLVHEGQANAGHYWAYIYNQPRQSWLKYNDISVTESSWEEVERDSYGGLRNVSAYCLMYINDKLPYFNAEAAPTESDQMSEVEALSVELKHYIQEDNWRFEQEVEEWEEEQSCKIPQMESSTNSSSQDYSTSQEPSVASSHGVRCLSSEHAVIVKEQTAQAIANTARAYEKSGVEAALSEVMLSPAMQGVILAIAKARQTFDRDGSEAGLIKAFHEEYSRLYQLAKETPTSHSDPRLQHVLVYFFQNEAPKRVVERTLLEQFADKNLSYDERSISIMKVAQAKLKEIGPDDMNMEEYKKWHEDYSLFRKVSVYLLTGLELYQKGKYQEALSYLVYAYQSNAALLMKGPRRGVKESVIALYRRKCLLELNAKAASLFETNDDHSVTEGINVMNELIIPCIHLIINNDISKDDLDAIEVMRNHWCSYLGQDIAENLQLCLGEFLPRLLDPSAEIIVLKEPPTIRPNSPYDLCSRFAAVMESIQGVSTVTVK

| Compound | IC50 |
| --- | --- |
| CCCc1nc2sc3c(NCCc4ccc(OC)c(OC)c4)ncnc3c2c2c1CCC2 [Compound 1] | < 1 µM |
| CCCc1nc2sc3c(NCc4ccco4)ncnc3c2c2c1CCC2 [Compound 2] | < 1 µM |
| CCCc1nc2sc3c(NC4CCCCC4)ncnc3c2c2c1CCC2 [Compound 3] | 10 to 100 µM |
| CCCc1nc2sc3c(NCCc4ccc(Cl)c(Cl)c4)ncnc3c2c2c1CCC2 [Compound 4] | 10 to 100 µM |
| CCCc1nc2sc3c(NCc4ccc(Cl)c(Cl)c4)ncnc3c2c2c1CCC2 [Compound 5] | > 100 µM |
| COc1ccc(CCNc2ncnc3c2sc2ncccc23)cc1OC [Compound 6] | 1 to 10 µM |
| CCCc1nc2sc3c(N(C)CCc4ccc(OC)c(OC)c4)ncnc3c2c2c1CCC2 [Compound 7] | 10 to 100 µM |
| COc1ccc(CCNc2ncnc3c2sc2ncc4c(c23)CCC4)cc1OC [Compound 8] | 1 to 10 µM |
| CCCc1nc2sc3c(NCc4ccc(OC)c(OC)c4)ncnc3c2c2c1CCC2 [Compound 9] | < 1 µM |
| CCCc1nc2sc3c(NCCc4ccc(OC)cc4)ncnc3c2c2c1CCC2 [Compound 10] | < 1 µM |
| CCCc1nc2sc3c(NCCc4cccc(OC)c4)ncnc3c2c2c1CCC2 [Compound 11] | 10 to 100 µM |
| CCCc1nc2sc3c(NCCc4ccc(N(C)C)cc4)ncnc3c2c2c1CCC2 [Compound 12] | < 1 µM |
| CCCc1nc2sc3c(NCCc4ccc5c(c4)OCCO5)ncnc3c2c2c1CCC2 [Compound 13] | 1 to 10 µM |
| CCCc1nc2sc3c(NCCCc4ccc(OC)c(OC)c4)ncnc3c2c2c1CCC2 [Compound 14] | 10 to 100 µM |
| CCCc1nc2sc3c(NCCc4c[nH]c5ccccc45)ncnc3c2c2c1CCC2 [Compound 15] | 1 to 10 µM |
| CCCc1nc2sc3c(NCCc4cc(OC)c(OC)c(OC)c4)ncnc3c2c2c1CCC2 [Compound 16] | 1 to 10 µM |
| CCCc1nc2sc3c(NCCc4cccs4)ncnc3c2c2c1CCC2 [Compound 17] | < 1 µM |
| CCCc1nc2sc(C(=O)NCCc3ccc(OC)c(OC)c3)c(N)c2c2c1CCC2 [Compound 18] | < 1 µM |
| CCCc1nc2sc3c(NCCc4ccc(N5CCNCC5)cc4)ncnc3c2c2c1CCC2 [Compound 19] | < 1 µM |
| COc1ccc(CCNC(=O)c2sc3nc(C)ccc3c2N)cc1OC [Compound 20] | < 1 µM |
| CCCc1nc2sc(C(=O)NCCc3ccc(N4CCNCC4)cc3)c(N)c2c2c1CCC2 [Compound 21] | < 1 µM |
| Cc1ccc2c(N)c(C(=O)NCCc3ccc(C4CCNCC4)cc3)sc2n1 [Compound 22] | < 1 µM |
| Cc1ccc2c(N)c(C(=O)NCCc3ccc(C4CC5CCC(C4)N5)cc3)sc2n1 (centres unmarked) [Compound 23] | < 1 µM |
| Cc1ccc2c(N)c(C(=O)NCCc3ccc(C4CC5CCC(C4)N5C(=O)OC(C)(C)C)cc3)sc2n1 (centres unmarked) [Compound 24] | < 1 µM |
| COc1ccc(CCNC(=O)c2sc3nc(C)c4c(c3c2N)CCC4)cc1OC [Compound 25] | < 1 µM |

| Compound | IC50 |
| --- | --- |
| COc1ccc(CCNC(=O)c2sc3nc4c(c(C)c3c2N)CCC4)cc1OC [Compound 26] | < 1 µM |
| CCCc1nc2oc(C(=O)NCCc3ccc(OC)c(OC)c3)c(N)c2c2c1CCC2 [Compound 27] | < 1 µM |
| CCCc1ccc2c(N)c(C(=O)NCCc3ccc(OC)c(OC)c3)sc2n1 [Compound 28] | < 1 µM |
| CCCc1nc2sc(C(=O)NCCc3ccc(OC)c(OC)c3)c(NC(C)=O)c2c2c1CCC2 [Compound 29] | < 1 µM |
| Cc1ccc2c(N)c(C(=O)NCCc3ccc(N4CCNCC4)cc3)sc2n1 [Compound 30] | < 1 µM |
| Cc1ccc2c(N)c(C(=O)NCCc3ccc(N4CCN(C(=O)OC(C)(C)C)CC4)cc3)sc2n1 [Compound 31] | < 1 µM |
| CCCc1nc2sc(C(=O)NCCc3ccc(O)c(O)c3)c(N)c2c2c1CCC2 [Compound 32] | < 1 µM |
| CCCc1nc2sc(C(=O)NCCc3ccc(OC)c(OC)c3)c(NCc3ccccc3)c2c2c1CCC2 [Compound 33] | < 1 µM |
| CCCc1nc2sc(C(=O)NCCc3ccc(OC)c(OC)c3)c(N)c2cc1C(=O)N(C)C [Compound 35] | < 1 µM |
| CCCc1nc2sc(C(=O)NCC(C)c3ccc(OC)c(OC)c3)c(N)c2c2c1CCC2 (centres unmarked) [Compound 36] | < 1 µM |
| CCCc1nc2sc(C(=O)NC(C)Cc3ccc(OC)c(OC)c3)c(N)c2c2c1CCC2 (centres unmarked) [Compound 37] | < 1 µM |
| CCCc1ccc2c(n1)sc1c(NCCc3ccc(OC)c(OC)c3)ncnc12 [Compound 38] | < 1 µM |
| CCCc1ccc2c(n1)sc1c(NCCc3ccc4c(c3)OCCO4)ncnc12 [Compound 39] | < 1 µM |
| CCCc1nc2sc(C(=O)NC[C@H](C)c3ccccc3)c(N)c2c2c1CCC2 [Compound 40] | < 1 µM |
| CCCc1nc2sc(C(=O)NC[C@@H](C)c3ccccc3)c(N)c2c2c1CCC2 [Compound 41] | < 1 µM |
| CCCc1ccc2c(n1)sc1c(NCCc3ccc(N(C)C)cc3)ncnc12 [Compound 42] | < 1 µM |
| CCCc1ccc2c(n1)sc1c(NCC(C)c3ccc(OC)c(OC)c3)ncnc12 (centres unmarked) [Compound 43] | < 1 µM |
| CCCc1nc2sc3c(OCCc4ccc(OC)c(OC)c4)ncnc3c2c2c1CCC2 [Compound 44] | 1 to 10 µM |
| CCCc1nc2sc3c(NCCc4ccc(OC)c(OC)c4)ncnc3c2c2c1CCCC2 [Compound 45] | < 1 µM |
| CCCc1nc2sc(C(=O)NCCc3ccc(OC)c(OC)c3)c(N)c2c2c1CCCC2 [Compound 46] | < 1 µM |
| CCCc1nc2sc(C(=O)N[C@@H](C)Cc3ccc(OC)cc3)c(N)c2c2c1CCC2 [Compound 47] | < 1 µM |
| CCCCCc1nc2sc3c(NCCc4ccc(OC)c(OC)c4)ncnc3c2c2c1CCC2 [Compound 48] | < 1 µM |
| CCCCCc1nc2sc(C(=O)NCCc3ccc(OC)c(OC)c3)c(N)c2c2c1CCC2 [Compound 49] | < 1 µM |
| CCCc1nc2sc(C(=O)N[C@H](C)Cc3ccc(OC)cc3)c(N)c2c2c1CCC2 [Compound 50] | < 1 µM |

What follows are compounds tested against T1, USP28 (assay: Competitive activity-based protein profiling (Ub-VME labeling, Western blot) in K562 cell lysate). Settings: K562 cells lysed, treated with compound for 1 h followed by incubation with Ub-VME; Western blot (FIG. 2).
Type: binding
Procedure: K562 cells were lysed and treated with indicated concentrations of compound 1 for 1 h followed by incubation with Ub-VME. Ub-VME covalently modifies USP28, resulting in higher MW band observed by Western blot.
Cells were pelleted, washed with PBS buffer, lysed on ice (20 mM Tris pH 8, 150 mM NaCl, 1% NP-40, 10% glycerol, 1 mM TCEP, phosphatase inhibitor cocktails (Sigma P5726 and Calbiochem 524624), and protease inhibitors (pepstatin, leupeptin, PMSF, and aprotinin), and clarified by centrifugation. Protein content was quantified by BCA and diluted to 2 mg/mL in lysis buffer. Compounds were added at desired concentrations and incubated at room temperature for 30 minutes. Samples were then supplemented with 2 uM HA-Ub-VS and incubated at room temperature with shaking for 15 minutes. Reactions were quenched with 4×LDS sample buffer (Thermo Fisher B0007) supplemented with 10% BME, vortexed vigorously, and heated to 95° C. for 5 minutes. Samples were resolved by SDS-PAGE and analyzed by Western blot with the indicated antibodies.

| Compound | Target engagement: labeling of USP28 by covalent Ub-VME probe |
| --- | --- |
| CCCc1nc2sc3c(NCCc4ccc(OC)c(OC)c4)ncnc3c2c2c1CCC2 [Compound 1] | prevents labeling of USP28 by the covalent Ub-VME probe |

Reference: patent US20230365583A1, “FUSED TRICYCLIC PYRIMIDINE-THIENO-PYRIDINE SMALL MOLECULE INHIBITORS OF UBIQUITIN-SPECIFIC PROTEASE 28” (Dana-Farber Cancer Institute, Inc., priority 2020, published 2023)
